Experimental data: patent publication US8703961B2, “Thiazole derivatives for the treatment of diseases such as cancer” (Merck Patent GmbH, priority 2009, dated 2014)
pIC50: −log10 of the molar value.

How the values were obtained:
Type in all cases: biochemical
MAP4K2 (GCK) = molecular target: T1, MAP4K2 (GCK) (Homo sapiens, UniProt Q12851); assay: filter binding kinase assay; conditions: for pIC50: derived from % inhibition at 1 μM
T1 construct: purchased
T1 sequence (Q12851 1-820): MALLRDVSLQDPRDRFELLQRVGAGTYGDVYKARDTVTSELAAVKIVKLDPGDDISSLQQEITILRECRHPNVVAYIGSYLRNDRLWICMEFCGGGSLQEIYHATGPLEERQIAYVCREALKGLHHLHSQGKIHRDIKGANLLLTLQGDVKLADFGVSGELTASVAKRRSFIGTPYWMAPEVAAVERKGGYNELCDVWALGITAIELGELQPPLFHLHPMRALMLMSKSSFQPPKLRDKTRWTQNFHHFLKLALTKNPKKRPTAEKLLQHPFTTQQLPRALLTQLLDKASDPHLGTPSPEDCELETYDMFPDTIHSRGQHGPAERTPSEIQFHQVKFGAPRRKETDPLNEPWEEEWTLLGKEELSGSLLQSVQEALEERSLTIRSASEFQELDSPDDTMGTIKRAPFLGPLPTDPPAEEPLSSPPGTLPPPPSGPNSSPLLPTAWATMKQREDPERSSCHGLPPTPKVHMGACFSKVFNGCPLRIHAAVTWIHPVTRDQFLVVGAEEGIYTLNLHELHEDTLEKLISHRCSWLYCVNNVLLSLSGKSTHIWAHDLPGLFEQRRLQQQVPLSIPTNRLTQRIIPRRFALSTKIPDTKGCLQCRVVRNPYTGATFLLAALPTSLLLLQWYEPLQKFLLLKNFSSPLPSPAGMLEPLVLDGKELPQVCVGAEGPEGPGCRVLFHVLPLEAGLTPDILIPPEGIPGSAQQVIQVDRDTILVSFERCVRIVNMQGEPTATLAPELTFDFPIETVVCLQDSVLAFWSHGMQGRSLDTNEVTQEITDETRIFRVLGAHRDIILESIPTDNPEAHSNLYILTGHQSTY
Protocol: (§1) All kinase assays were carried out using the Multidrop 384 from Thermo-Fisher at room temperature in a total assay volume of 25.5 μl. 15 μl of an enzyme mix comprising enzyme and substrate in buffer are added to the test batch comprising either 0.5 μl of test substance, DMSO control or empty container. Test substances are pre-incubated in the presence of the enzyme and substrate for 5 minutes before the reaction is initiated by addition of 10 μl of ATP (concentration kinase-dependent of […]). The reaction is terminated by addition of 5 μl of orthophosphoric acid (50 mM). The test containers are then transferred onto P81 Unifilter plates by means of a “Packard Harvester” and dried in air. The dry Unifilter plates are sealed after the addition of MicroScint O, and the radioactivity is determined in a Packard Topcount NXT.

RPS6KA5 = molecular target: T2, RPS6KA5 (Homo sapiens, UniProt O75582); assay: filter binding kinase assay; conditions: derived from % inhibition at 1 μM
T2 construct: purchased
Protocol: as §1

MINK1 = molecular target: T3, MINK1 (Homo sapiens, UniProt Q8N4C8); assay: filter binding kinase assay; conditions: derived from % inhibition at 1 μM
T3 construct: purchased
T3 sequence (Q8N4C8 whole entry, species assumed): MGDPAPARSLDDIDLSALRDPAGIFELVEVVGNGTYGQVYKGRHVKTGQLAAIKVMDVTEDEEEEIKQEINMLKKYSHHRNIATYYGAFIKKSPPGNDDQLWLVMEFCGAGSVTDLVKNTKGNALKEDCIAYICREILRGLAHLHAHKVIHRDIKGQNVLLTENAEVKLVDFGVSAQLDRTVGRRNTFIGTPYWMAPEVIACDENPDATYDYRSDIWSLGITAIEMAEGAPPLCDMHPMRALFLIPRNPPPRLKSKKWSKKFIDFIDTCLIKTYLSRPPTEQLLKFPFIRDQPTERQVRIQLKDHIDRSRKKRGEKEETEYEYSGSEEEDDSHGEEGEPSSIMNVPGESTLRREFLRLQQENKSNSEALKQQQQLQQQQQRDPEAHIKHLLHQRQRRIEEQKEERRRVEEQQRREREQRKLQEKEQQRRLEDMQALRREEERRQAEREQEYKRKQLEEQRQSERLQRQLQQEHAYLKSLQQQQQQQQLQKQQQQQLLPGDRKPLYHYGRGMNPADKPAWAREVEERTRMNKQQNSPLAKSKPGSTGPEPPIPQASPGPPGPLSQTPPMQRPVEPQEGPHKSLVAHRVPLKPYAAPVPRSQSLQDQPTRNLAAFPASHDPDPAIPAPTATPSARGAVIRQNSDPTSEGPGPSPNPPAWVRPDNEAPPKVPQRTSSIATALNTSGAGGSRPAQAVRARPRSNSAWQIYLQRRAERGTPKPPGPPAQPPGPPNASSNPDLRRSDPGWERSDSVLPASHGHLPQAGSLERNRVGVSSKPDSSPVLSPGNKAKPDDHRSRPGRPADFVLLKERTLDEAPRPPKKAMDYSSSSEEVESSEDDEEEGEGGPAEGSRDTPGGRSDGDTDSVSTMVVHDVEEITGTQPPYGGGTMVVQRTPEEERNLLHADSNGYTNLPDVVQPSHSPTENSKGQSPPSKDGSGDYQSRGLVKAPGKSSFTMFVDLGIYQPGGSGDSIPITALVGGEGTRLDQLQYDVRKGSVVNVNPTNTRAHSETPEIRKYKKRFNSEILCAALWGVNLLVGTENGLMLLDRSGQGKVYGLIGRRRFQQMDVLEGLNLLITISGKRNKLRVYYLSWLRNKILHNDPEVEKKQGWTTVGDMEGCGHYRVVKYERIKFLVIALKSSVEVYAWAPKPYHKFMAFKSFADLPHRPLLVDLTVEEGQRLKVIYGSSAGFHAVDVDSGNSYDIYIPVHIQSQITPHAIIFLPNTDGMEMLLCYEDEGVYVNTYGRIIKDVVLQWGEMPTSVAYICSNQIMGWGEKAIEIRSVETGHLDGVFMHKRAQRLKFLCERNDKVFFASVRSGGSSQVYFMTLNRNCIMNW
Protocol: as §1

FGFR1 = molecular target: T4, FGFR1 (Homo sapiens, UniProt P11362); assay: filter binding kinase assay; conditions: derived from % inhibition at 1 μM
T4 construct: purchased
T4 sequence (P11362 22-822, species assumed): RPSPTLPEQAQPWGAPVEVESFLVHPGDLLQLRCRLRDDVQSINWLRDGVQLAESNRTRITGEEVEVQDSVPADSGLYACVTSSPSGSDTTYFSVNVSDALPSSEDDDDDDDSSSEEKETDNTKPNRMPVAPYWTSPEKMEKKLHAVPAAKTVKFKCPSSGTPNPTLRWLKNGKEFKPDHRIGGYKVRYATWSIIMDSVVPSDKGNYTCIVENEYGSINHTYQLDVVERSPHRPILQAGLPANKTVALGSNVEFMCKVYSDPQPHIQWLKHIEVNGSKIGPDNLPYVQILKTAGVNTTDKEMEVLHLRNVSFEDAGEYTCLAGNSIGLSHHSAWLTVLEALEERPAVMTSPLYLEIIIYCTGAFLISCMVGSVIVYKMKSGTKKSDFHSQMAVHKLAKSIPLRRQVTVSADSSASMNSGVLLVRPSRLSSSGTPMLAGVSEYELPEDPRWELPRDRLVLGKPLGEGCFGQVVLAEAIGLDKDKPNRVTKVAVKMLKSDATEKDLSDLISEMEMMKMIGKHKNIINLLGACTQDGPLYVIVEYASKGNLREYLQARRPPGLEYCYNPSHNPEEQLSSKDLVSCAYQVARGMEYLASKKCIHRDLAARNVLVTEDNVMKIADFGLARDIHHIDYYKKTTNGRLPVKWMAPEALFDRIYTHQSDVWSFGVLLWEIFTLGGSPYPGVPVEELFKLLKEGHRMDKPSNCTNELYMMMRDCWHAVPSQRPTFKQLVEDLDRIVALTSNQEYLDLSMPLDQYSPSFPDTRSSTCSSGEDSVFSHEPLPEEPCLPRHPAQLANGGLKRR
Protocol: as §1

AKT1 = molecular target: T5, AKT1 (Homo sapiens, UniProt P31749); assay: filter binding kinase assay; conditions: derived from % inhibition at 1 μM
T5 construct: purchased
T5 sequence (P31749 whole entry, species assumed): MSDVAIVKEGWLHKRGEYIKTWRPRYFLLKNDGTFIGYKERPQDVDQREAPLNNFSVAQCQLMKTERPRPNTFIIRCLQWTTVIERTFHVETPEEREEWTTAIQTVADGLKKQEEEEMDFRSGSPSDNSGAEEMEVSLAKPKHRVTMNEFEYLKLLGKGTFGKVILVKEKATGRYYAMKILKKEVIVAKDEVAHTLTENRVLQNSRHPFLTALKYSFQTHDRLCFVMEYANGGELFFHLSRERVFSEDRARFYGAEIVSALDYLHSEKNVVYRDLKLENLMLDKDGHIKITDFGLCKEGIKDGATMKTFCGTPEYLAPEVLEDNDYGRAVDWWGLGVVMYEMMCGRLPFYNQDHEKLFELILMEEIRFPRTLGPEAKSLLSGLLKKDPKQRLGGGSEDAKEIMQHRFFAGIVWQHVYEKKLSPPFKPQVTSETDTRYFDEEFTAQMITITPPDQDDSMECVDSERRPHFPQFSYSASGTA
Protocol: as §1

LCK = molecular target: T6, LCK (Homo sapiens, UniProt P06239); assay: filter binding kinase assay; conditions: derived from % inhibition at 1 μM
T6 construct: purchased
T6 sequence (P06239 whole entry, species assumed): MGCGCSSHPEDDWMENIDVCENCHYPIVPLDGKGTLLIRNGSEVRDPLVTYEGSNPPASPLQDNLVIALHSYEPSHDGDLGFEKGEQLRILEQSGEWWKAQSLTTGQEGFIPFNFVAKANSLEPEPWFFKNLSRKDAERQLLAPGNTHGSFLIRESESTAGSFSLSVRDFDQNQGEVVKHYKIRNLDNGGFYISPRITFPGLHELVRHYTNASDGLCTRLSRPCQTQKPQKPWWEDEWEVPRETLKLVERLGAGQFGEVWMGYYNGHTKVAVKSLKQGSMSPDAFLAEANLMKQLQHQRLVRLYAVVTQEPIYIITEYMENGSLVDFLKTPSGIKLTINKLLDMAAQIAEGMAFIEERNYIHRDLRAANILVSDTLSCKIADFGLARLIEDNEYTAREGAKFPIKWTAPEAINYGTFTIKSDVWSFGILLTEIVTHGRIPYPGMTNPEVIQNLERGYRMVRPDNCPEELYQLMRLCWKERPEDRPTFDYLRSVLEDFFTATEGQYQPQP
Protocol: as §1

MAPK13 = molecular target: T7, MAPK13 (Homo sapiens, UniProt O15264); assay: filter binding kinase assay; conditions: derived from % inhibition at 1 μM
T7 construct: purchased
T7 sequence (O15264 1-365): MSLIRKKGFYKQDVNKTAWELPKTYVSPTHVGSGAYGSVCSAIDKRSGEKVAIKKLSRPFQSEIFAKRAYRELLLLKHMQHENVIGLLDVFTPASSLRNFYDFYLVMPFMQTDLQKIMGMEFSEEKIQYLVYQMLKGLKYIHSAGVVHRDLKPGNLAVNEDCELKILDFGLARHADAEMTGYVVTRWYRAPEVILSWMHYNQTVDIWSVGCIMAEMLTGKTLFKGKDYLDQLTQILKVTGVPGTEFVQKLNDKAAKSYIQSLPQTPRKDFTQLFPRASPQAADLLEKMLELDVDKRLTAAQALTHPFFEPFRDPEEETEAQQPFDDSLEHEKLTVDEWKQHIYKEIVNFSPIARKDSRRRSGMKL
Protocol: as §1

NEK6 = molecular target: T8, NEK6 (Homo sapiens, UniProt Q9HC98); assay: filter binding kinase assay; conditions: derived from % inhibition at 1 μM
T8 construct: purchased
T8 sequence (Q9HC98 whole entry, species assumed): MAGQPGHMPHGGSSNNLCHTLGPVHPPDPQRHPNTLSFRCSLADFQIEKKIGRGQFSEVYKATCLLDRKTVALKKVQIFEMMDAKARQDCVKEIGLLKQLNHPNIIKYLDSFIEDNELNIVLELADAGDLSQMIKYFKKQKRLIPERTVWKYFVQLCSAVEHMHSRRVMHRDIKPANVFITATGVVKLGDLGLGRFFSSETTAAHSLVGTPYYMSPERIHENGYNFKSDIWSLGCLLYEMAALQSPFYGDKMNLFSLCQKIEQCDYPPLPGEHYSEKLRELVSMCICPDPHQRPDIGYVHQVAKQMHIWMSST
Protocol: as §1

YES1 = molecular target: T9, YES1 (Homo sapiens, UniProt P07947); assay: filter binding kinase assay; conditions: derived from % inhibition at 1 μM
T9 construct: purchased
T9 sequence (P07947 whole entry, species assumed): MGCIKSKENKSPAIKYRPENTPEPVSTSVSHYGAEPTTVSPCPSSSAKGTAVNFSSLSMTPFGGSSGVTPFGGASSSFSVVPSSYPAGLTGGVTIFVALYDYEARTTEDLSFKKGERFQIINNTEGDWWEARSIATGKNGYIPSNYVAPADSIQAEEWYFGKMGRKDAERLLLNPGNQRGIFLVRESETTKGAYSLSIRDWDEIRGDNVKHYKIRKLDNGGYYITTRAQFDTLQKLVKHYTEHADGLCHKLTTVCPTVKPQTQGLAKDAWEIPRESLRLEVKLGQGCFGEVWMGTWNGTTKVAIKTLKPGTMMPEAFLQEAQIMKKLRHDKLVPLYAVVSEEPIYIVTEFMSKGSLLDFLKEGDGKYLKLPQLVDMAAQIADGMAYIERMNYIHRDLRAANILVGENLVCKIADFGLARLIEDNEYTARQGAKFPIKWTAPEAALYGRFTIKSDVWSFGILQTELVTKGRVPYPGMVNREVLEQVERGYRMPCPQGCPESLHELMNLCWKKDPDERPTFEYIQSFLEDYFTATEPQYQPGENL
Protocol: as §1

RPS6KA1 = molecular target: T10, RPS6KA1 (Homo sapiens, UniProt Q15418); assay: filter binding kinase assay; conditions: derived from % inhibition at 1 μM
T10 construct: purchased
T10 sequence (Q15418 whole entry, species assumed): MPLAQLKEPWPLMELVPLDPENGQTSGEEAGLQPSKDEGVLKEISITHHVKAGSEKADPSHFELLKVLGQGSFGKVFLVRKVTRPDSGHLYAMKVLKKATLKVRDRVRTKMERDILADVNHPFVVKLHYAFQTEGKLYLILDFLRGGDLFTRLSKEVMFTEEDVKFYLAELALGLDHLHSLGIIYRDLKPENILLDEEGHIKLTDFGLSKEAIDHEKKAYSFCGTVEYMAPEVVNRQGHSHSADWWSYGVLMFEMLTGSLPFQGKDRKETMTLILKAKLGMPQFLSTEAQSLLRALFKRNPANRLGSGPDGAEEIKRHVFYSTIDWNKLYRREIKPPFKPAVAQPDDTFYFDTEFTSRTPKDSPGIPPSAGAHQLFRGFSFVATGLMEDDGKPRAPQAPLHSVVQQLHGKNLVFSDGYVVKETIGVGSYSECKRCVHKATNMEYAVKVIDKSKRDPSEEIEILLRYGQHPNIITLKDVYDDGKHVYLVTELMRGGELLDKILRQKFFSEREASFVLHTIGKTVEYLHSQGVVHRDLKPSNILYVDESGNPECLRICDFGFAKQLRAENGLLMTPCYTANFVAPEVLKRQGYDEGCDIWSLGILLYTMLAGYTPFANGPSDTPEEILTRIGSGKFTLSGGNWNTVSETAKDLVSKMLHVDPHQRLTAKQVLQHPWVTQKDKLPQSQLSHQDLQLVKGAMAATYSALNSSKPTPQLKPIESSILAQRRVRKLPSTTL
Protocol: as §1

PDPK1 = molecular target: T11, PDPK1 (Homo sapiens, UniProt O15530); assay: filter binding kinase assay (second PDPK1 line); conditions: derived from % inhibition at 1 μM
T11 construct: purchased
T11 sequence (O15530 1-556): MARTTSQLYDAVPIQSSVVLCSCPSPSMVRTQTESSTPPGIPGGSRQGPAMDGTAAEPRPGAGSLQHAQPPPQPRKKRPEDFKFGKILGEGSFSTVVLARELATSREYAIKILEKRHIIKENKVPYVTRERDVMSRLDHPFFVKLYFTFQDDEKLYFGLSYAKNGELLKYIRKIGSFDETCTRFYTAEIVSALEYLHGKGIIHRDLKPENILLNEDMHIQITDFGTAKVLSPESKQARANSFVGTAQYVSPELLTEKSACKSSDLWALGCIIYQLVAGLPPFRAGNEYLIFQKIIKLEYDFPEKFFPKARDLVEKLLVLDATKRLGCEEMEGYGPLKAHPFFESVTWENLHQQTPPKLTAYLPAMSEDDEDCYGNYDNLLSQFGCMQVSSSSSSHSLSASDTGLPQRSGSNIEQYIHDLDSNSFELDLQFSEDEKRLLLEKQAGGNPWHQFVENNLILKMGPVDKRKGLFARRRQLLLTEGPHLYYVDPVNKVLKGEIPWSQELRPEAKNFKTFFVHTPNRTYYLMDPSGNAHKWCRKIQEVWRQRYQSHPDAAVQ
Protocol: as §1

c1ccc(Cc2c[nH]c3ncsc23)cc1 [Compound A7, 6-benzyl-4H-pyrrolo[2,3-d]thiazole]
5.00 to 6.00: pIC50 (MAP4K2 (GCK)) | pIC50 (RPS6KA5) | pIC50 (MINK1) | pIC50 (FGFR1) | pIC50 (MAPK13)
4.00 to 5.00: pIC50 (LCK) | pIC50 (NEK6) | pIC50 (RPS6KA1)
< 6.00: pIC50 (AKT1) | pIC50 (YES1) | pIC50 (PDPK1)

Nc1ncsc1C#Cc1cnc2[nH]ccc2c1 [Compound A22, 5-(1H-pyrrolo[2,3-b]pyridin-5-ylethynyl)thiazol-4-ylamine]
5.00 to 6.00: pIC50 (MINK1) | pIC50 (FGFR1) | pIC50 (YES1) | pIC50 (PDPK1)
< 6.00: pIC50 (LCK) | pIC50 (NEK6) | pIC50 (RPS6KA1)
31%: remaining activity at 1 µM (MAP4K2 (GCK); read-out: residual kinase activity GCK)
6.00 to 8.00: pIC50 (MAP4K2 (GCK))
4.00 to 5.00: pIC50 (RPS6KA5) | pIC50 (AKT1) | pIC50 (MAPK13)

Nc1ncsc1C#Cc1cccc(O)c1 [Compound A27, 3-(4-aminothiazol-5-ylethynyl)phenol]
< 6.00: pIC50 (FGFR1) | pIC50 (AKT1) | pIC50 (YES1) | pIC50 (RPS6KA1) | pIC50 (PDPK1)
4.00 to 5.00: pIC50 (RPS6KA5) | pIC50 (NEK6)
5.00 to 6.00: pIC50 (MAP4K2 (GCK)) | pIC50 (MINK1) | pIC50 (LCK) | pIC50 (MAPK13)

CC(C)(C)OC(=O)Nc1ncsc1C#CCN1C(=O)c2ccccc2C1=O [Compound A26, tert-butyl{5-[3-(1,3-dioxo-1,3-dihydroisoindol-2-yl)prop-1-ynyl]-thiazol-4-yl}carbamate]
< 6.00: pIC50 (RPS6KA5) | pIC50 (AKT1) | pIC50 (LCK) | pIC50 (YES1) | pIC50 (RPS6KA1)
4.00 to 5.00: pIC50 (MINK1) | pIC50 (MAPK13) | pIC50 (NEK6) | pIC50 (PDPK1)
5.00 to 6.00: pIC50 (MAP4K2 (GCK)) | pIC50 (FGFR1)

CC(C)(C)OC(=O)Nc1nc(-c2ccncc2)sc1C#CCN1CCOCC1 [Compound A25, tert-butyl[5-(3-morpholin-4-ylprop-1-ynyl)-2-pyridin-4-ylthiazol-4-yl]-carbamate]
5.00 to 6.00: pIC50 (NEK6)
< 6.00: pIC50 (MAP4K2 (GCK)) | pIC50 (FGFR1) | pIC50 (AKT1) | pIC50 (LCK) | pIC50 (MAPK13) | pIC50 (YES1) | pIC50 (PDPK1)
4.00 to 5.00: pIC50 (RPS6KA5) | pIC50 (MINK1) | pIC50 (RPS6KA1)
